Data published in ChEMBL document CHEMBL5338723, “Emerging Target-Directed Approaches for the Treatment and Diagnosis of Microbial Infections” (J Med Chem, 2023).
≈ marks a conversion by molar mass, not a printed value. *1 amine or outer side, *2 acyl side, *3 side chain or, on linkers, in order; H or OH if unused. Where a SMILES comes first, the peptide text is derived from it. [ ]: non-standard residue; d: D form. X3 = Cn1c(=O)ccn([C@@H]2S[C@H]([C@@H](O)[C@@H](N[*:1])C(=O)[*:2])[C@H](O)[C@H]2O)c1=O; Orn(N5-OH,N5-Ac) = CC(=O)N(O)CCC[C@H](N)C(=O)O

Experiments:
Format in all cases: functional
[1] = system: Escherichia coli; experiment: Antimicrobial activity against Escherichia coli ATCC 35218 assessed as microbial growth inhibition
[2] = system: Escherichia coli; experiment: Antimicrobial activity against Escherichia coli UTI89 assessed as microbial growth inhibition
[3] = system: Salmonella enteritidis; experiment: Antimicrobial activity against Salmonella enterica subsp. enterica serovar Enteritidis assessed as increase in microbial growth inhibition
[4] = system: Salmonella typhimurium; experiment: Antimicrobial activity against Salmonella enterica subsp. enterica serovar Typhimurium assessed as increase in microbial growth inhibition
[5] = system: Proteus vulgaris; experiment: Antimicrobial activity against Proteus vulgaris assessed as microbial growth inhibition
[6] = system: Escherichia coli; experiment: Antimicrobial activity against Escherichia coli assessed as microbial growth inhibition
[7] = system: Pseudomonas aeruginosa; experiment: Antibacterial activity against Pseudomonas aeruginosa assessed as microbial growth inhibition
[8] = system: Staphylococcus aureus; experiment: Antimicrobial activity against Staphylococcus aureus assessed as microbial growth inhibition
[9] = system: Salmonella typhi; experiment: Antimicrobial activity against Salmonella enterica subsp. enterica serovar Typhi assessed as microbial growth inhibition
[10] = system: Mycobacterium tuberculosis; experiment: Antimicrobial activity against Mycobacterium tuberculosis H37Rv assessed as microbial growth inhibition
[11] = system: Escherichia coli; experiment: Antimicrobial activity against Escherichia coli AR089 assessed as microbial growth inhibition
[12] = system: Escherichia coli; experiment: Antimicrobial activity against Escherichia coli AR0349 assessed as microbial growth inhibition
[13] = system: Staphylococcus aureus; experiment: Antimicrobial activity against vancomycin intermediate Staphylococcus aureus assessed as microbial growth inhibition
[14] = system: Escherichia coli; experiment: Antimicrobial activity against Escherichia coli IR3 assessed as microbial growth inhibition
[15] = system: Escherichia coli; experiment: Antimicrobial activity against Escherichia coli AR0493 assessed as microbial growth inhibition
[16] = system: Escherichia coli; experiment: Antimicrobial activity against Escherichia coli JW0451-2 assessed as microbial growth inhibition
[17] = system: Escherichia coli; experiment: Antimicrobial activity against Escherichia coli NCTC 13462 assessed as microbial growth inhibition
[18] = system: Escherichia coli; experiment: Antimicrobial activity against Escherichia coli NCTC 13441 assessed as microbial growth inhibition
[19] = system: Escherichia coli; experiment: Antimicrobial activity against Escherichia coli AR0494 assessed as microbial growth inhibition
[20] = system: Escherichia coli; experiment: Antimicrobial activity against Escherichia coli ExPEC H5 assessed as microbial growth inhibition
[21] = system: Escherichia coli; experiment: Antimicrobial activity against Escherichia coli AR055 assessed as microbial growth inhibition
[22] = system: Acinetobacter baumannii; experiment: Antimicrobial activity against Acinetobacter baumannii GS2AB1 assessed as microbial growth inhibition
[23] = system: Escherichia coli; experiment: Antimicrobial activity against Escherichia coli AR0137 assessed as microbial growth inhibition
[24] = system: Escherichia coli; experiment: Antimicrobial activity against Escherichia coli IR57 assessed as microbial growth inhibition
[25] = system: Enterococcus faecium; experiment: Antimicrobial activity against vancomycin-resistant Enterococcus faecium ATCC 51559 assessed as microbial growth inhibition
[26] = system: Acinetobacter baumannii; experiment: Antimicrobial activity against Acinetobacter baumannii ACC00527 assessed as microbial growth inhibition
[27] = system: Escherichia coli; experiment: Antimicrobial activity against Escherichia coli Swiss 15 assessed as microbial growth inhibition
[28] = system: Escherichia coli; experiment: Antimicrobial activity against Escherichia coli ATCC BAA-2340 assessed as microbial growth inhibition
[29] = system: Escherichia coli; experiment: Antimicrobial activity against Escherichia coli AR0114 assessed as microbial growth inhibition
[30] = system: Enterococcus faecalis; experiment: Antimicrobial activity against vancomycin-resistant Enterococcus faecalis ATCC 51575 assessed as microbial growth inhibition
[31] = system: Escherichia coli; experiment: Antimicrobial activity against Escherichia coli Swiss 2 (AF45) assessed as microbial growth inhibition
[32] = system: Escherichia coli; experiment: Antimicrobial activity against Escherichia coli ATCC BAA-2469 assessed as microbial growth inhibition
[33] = system: Escherichia coli; experiment: Antimicrobial activity against Escherichia coli AR0346 assessed as microbial growth inhibition
[34] = system: Escherichia coli; experiment: Antimicrobial activity against Escherichia coli AR0350 assessed as microbial growth inhibition
[35] = system: Escherichia coli; experiment: Antimicrobial activity against Escherichia coli B808 assessed as microbial growth inhibition
[36] = system: Escherichia coli; experiment: Antimicrobial activity against Escherichia coli IR45 assessed as microbial growth inhibition
[37] = system: Escherichia coli; experiment: Antimicrobial activity against Escherichia coli B096a assessed as microbial growth inhibition
[38] = system: Staphylococcus aureus; experiment: Antimicrobial activity against methicillin-resistant Staphylococcus aureus ATCC 33591 assessed as microbial growth inhibition
[39] = system: Escherichia coli; experiment: Antimicrobial activity against Escherichia coli Swiss 13 assessed as microbial growth inhibition
[40] = system: Escherichia coli; experiment: Antimicrobial activity against Escherichia coli NCTC 13846 assessed as microbial growth inhibition
[41] = system: Escherichia coli; experiment: Antimicrobial activity against Escherichia coli ATCC 25922 assessed as microbial growth inhibition
[42] = system: Escherichia coli; experiment: Antimicrobial activity against Escherichia coli H4/5 assessed as microbial growth inhibition
[43] = system: Escherichia coli; experiment: Antimicrobial activity against Escherichia coli AR0150 assessed as microbial growth inhibition
[44] = system: Acinetobacter baumannii; experiment: Antimicrobial activity against Acinetobacter baumannii Naval-81 assessed as microbial growth inhibition
[45] = system: Escherichia coli; experiment: Antimicrobial activity against Escherichia coli BW25113 assessed as microbial growth inhibition
[46] = system: Neisseria gonorrhoeae; experiment: Antimicrobial activity against Neisseria gonorrhoeae assessed as microbial growth inhibition
[47] = system: Salmonella typhi; experiment: Antimicrobial activity against Salmonella enterica subsp. enterica serovar Typhi 19214 assessed as microbial growth inhibition
[48] = system: Escherichia coli; experiment: Antimicrobial activity against Escherichia coli 25922 assessed as microbial growth inhibition
[49] = system: Shigella flexneri; experiment: Antimicrobial activity against Shigella flexneri M90T assessed as microbial growth inhibition
[50] = system: Salmonella typhimurium; experiment: Antimicrobial activity against Salmonella enterica subsp. enterica serovar Typhimurium 19585 assessed as microbial growth inhibition
[51] = system: Proteus mirabilis; experiment: Antimicrobial activity against Proteus mirabilis 29906 assessed as microbial growth inhibition
[52] = system: Shigella flexneri; experiment: Antimicrobial activity against Shigella flexneri 2457T assessed as microbial growth inhibition
[53] = system: Salmonella typhimurium; experiment: Antimicrobial activity against Salmonella enterica subsp. enterica serovar Typhimurium 29630 assessed as microbial growth inhibition
[54] = system: Salmonella typhimurium; experiment: Antimicrobial activity against Salmonella enterica subsp. enterica serovar Typhimurium BAA-190 assessed as microbial growth inhibition
[55] = system: Escherichia coli; experiment: Antimicrobial activity against Escherichia coli DH5alpha assessed as microbial growth inhibition
[56] = system: Salmonella typhi; experiment: Antimicrobial activity against Salmonella enterica subsp. enterica serovar Typhi 700931 assessed as microbial growth inhibition
[57] = system: Escherichia coli; experiment: Antimicrobial activity against Escherichia coli BAA-196 assessed as microbial growth inhibition

Compound: C[C@@H](O)[C@H]1C(=O)N2C(C(=O)O)=C(S[C@H]3C[C@@H](C(=O)N(C)C)N(C(=O)CCCc4cn(CCOCCOCCOCCNC(=O)c5cc(O)c(O)c(C(=O)N[C@H]6COC(=O)[C@@H](NC(=O)c7cccc(O)c7O)COC(=O)[C@@H](NC(=O)c7cccc(O)c7O)COC6=O)c5)nn4)C3)[C@H](C)[C@H]12
- MIC [1]: 0.01 µM (≈ 0.0139 µg/mL)
- MIC [2]: 0.01 µM
- MIC [3]: 0.01 µM
- MIC [4]: 0.01 µM

Compound: O=c1[nH]c2ccccc2[nH]/c1=N/N[C@@H]1O[C@H](CO)[C@@H](O)[C@H]1O
- MIC [5]: 2.07 µM (≈ 0.638 µg/mL)
- MIC [6]: 2.07 µM (≈ 0.638 µg/mL)
- MIC [7]: 2.07 µM (≈ 0.638 µg/mL)
- MIC [8]: 2.07 µM (≈ 0.638 µg/mL)
- MIC [9]: 7.8 µM (≈ 2.4 µg/mL)
- MIC [10]: 0.65 µM (≈ 0.2 µg/mL)

Compound: CN[C@H](CC(C)C)C(=O)N[C@H]1C(=O)N[C@@H](CC(N)=O)C(=O)N[C@H]2C(=O)N[C@H]3C(=O)N[C@H](C(=O)N[C@H](C(=O)O)c4cc(O)cc(O)c4-c4cc3ccc4O)[C@H](O)c3ccc(c(Cl)c3)Oc3cc2cc(c3O[C@@H]2O[C@H](CO)[C@@H](O)[C@H](O)[C@H]2O[C@H]2C[C@](C)(N)[C@H](O)[C@H](C)O2)Oc2ccc(cc2Cl)[C@H]1O [VANCOMYCIN]
- MIC [11]: 64 µg/mL (≈ 44.2 µM)
- MIC [12]: 64 µg/mL (≈ 44.2 µM)
- MIC [13]: 13 µM (≈ 18.8 µg/mL)
- MIC [14]: 64 µg/mL (≈ 44.2 µM)
- MIC [15]: 64 µg/mL (≈ 44.2 µM)
- MIC [16]: 64 µg/mL (≈ 44.2 µM)
- MIC [17]: 64 µg/mL (≈ 44.2 µM)
- MIC [18]: 64 µg/mL (≈ 44.2 µM)
- MIC [19]: 64 µg/mL (≈ 44.2 µM)
- MIC [20]: 64 µg/mL (≈ 44.2 µM)
- MIC [21]: 64 µg/mL (≈ 44.2 µM)
- MIC [22]: 64 µg/mL (≈ 44.2 µM)
- MIC [23]: 64 µg/mL (≈ 44.2 µM)
- MIC [24]: 64 µg/mL (≈ 44.2 µM)
- MIC [25]: 750 µM (≈ 1090 µg/mL)
- MIC [26]: 64 µg/mL (≈ 44.2 µM)
- MIC [27]: 64 µg/mL (≈ 44.2 µM)
- MIC [28]: 64 µg/mL (≈ 44.2 µM)
- MIC [2]: 64 µg/mL
- MIC [29]: 64 µg/mL (≈ 44.2 µM)
- MIC [30]: 250 µM (≈ 362 µg/mL)
- MIC [31]: 64 µg/mL (≈ 44.2 µM)
- MIC [32]: 64 µg/mL (≈ 44.2 µM)
- MIC [33]: 64 µg/mL (≈ 44.2 µM)
- MIC [34]: 64 µg/mL (≈ 44.2 µM)
- MIC [35]: 64 µg/mL (≈ 44.2 µM)
- MIC [36]: 64 µg/mL (≈ 44.2 µM)
- MIC [37]: 64 µg/mL (≈ 44.2 µM)
- MIC [38]: 0.63 µM (≈ 0.913 µg/mL)
- MIC [39]: 64 µg/mL (≈ 44.2 µM)
- MIC [40]: 64 µg/mL (≈ 44.2 µM)
- MIC [41]: 64 µg/mL (≈ 44.2 µM)
- MIC [42]: 64 µg/mL (≈ 44.2 µM)
- MIC [43]: 64 µg/mL (≈ 44.2 µM)
- MIC [44]: 64 µg/mL (≈ 44.2 µM)
- MIC [45]: 64 µg/mL (≈ 44.2 µM)

Compound: CC(=O)N(O)CCC[C@H](NC(=O)[C@H](CCCN(O)C(C)=O)NC(=O)[C@@H](N)CCCN(O)C(C)=O)C(=O)N[C@@H](CO)C(=O)N[C@@H](C(=O)O)[C@H](O)[C@H]1S[C@@H](n2ccc(=O)n(C)c2=O)[C@H](O)[C@H]1O (H-[Orn(N5-OH,N5-Ac)][Orn(N5-OH,N5-Ac)][Orn(N5-OH,N5-Ac)]S[X3]-OH)
- MIC [46]: 0.004 µg/mL (≈ 0.00421 µM)

Compound: H-GGAPATSANAAGAAAIVGALAGIPGGPLGVVVGAVSAGLTTAIGSTVGSGSASSSAGGGS-OH
- MIC [47]: 1.1 µM
- MIC [48]: 1.1 µM
- MIC [49]: 1.1 µM
- MIC [50]: 1.1 µM
- MIC [51]: 1.1 µM
- MIC [52]: 1.1 µM
- MIC [53]: 1.1 µM
- MIC [54]: 1.1 µM
- MIC [55]: 1.1 µM
- MIC [56]: 1.1 µM
- MIC [57]: 1.1 µM

Compound: Oc1nc2ccccc2nc1O
- MIC [10]: > 59.2 µM
